One data set in a line: Caco-2 assay. It is filed as in vitro ADME. Conditions: human; for Papp A→B at 90 min, 10 μM: Caco-2, apical to basolateral, pH 7.4, read-out: Caco PappAB; for efflux ratio at 90 min, 10 μM: Caco-2, pH 7.4, efflux ratio PappBA/PappAB, read-out: Caco ER. From the text:
The assay provides information on the potential of a compound to pass the cell membrane, on the extent of oral absorption as well as on whether the compound is actively transported by uptake and/or efflux transporters. Permeability measurements across polarized, confluent Caco-2 cell monolayers grown on permeable filter supports (Corning, catalog #3391) are used. […] The receiver and donor compartments contain 0.25% bovine serum albumine (BSA) in assay buffer. Passive diffusion and/or active transport of compounds across the monolayer is measured in both apical to basolateral (a-b) and basolateral to apical (b-a) direction. a-b permeability (PappAB) represents drug absorption from the intestine into the blood and b-a permeability (PappBA) drug secretion from the blood back into the intestine via both passive permeability as well as active transport mechanisms mediated by efflux and uptake transporters that are expressed on the Caco-2 cells. After a pre-incubation of 25-30 min at 37° C., at predefined time points (0, 30, 60 and 90 min), samples were taken from the receiver and donor compartment, respectively. Concentrations of test compounds in samples were measured by HPLC/MS/MS, samples from the donor compartment were diluted 1:50 (v:v) with assay buffer, samples from receiver compartment were measured without dilution.
Apparent permeabilities in a-b (PappAB) and b-a (PappBA) directions are calculated according to the formula:
[formula] • Vrec [mL]: buffer volume in receiver compartment • Cdon [μmol/mL]: concentration of test compound in donor compartment at t=0 • ΔCrec: difference between concentrations of test compound in receiver compartment at start and end of incubation time • Δt: Incubation time • Vrec·ΔCrec/Δt [μmol/min]: Amount of compound transferred to receiver compartment per time • A [cm^2]: filter surface
Caco-2 efflux ratios (ER) are calculated as the ratio of PappBA/PappAB.
In general terms: Caco-2 cells form a polarised layer with tight junctions and transporters.

Data set [1] deals with GP2D cells (colorectal cancer, G12D). As to the kind of experiment: GP2D proliferation assay (120 h). Format: cell-based. To be noted: CellTiter-Glo. The method, then:
GP2D cells (ATCC No. CRL-5807) are dispensed into white 384-well plates, flat and white bottom (Perkin Elmer, 6007680) at a density of 500 cells per well in 40 μl DMEM (Sigma, D6429)+1× GlutaMAX (Gibco, 35050038)+10% FCS (fetal calf serum). […] Compounds (10 mM stock in DMSO) are added at logarithmic dose series using the HP Digital Dispenser D300 (Tecan), including DMSO controls and normalizing for added DMSO. For the TO time point measurement, untreated cells are analyzed at the time of compound addition. Plates are incubated for 120 h, and cell viability is measured using CellTiter-Glo luminescent cell viability reagent (Promega product code G7570). Viability (stated as percent of control) is defined as relative luminescence units RLU of each well divided by the RLU of cells in DMSO controls. IC50 values are determined from viability measurements by non-linear regression using a four-parameter model.
(In general: ATP-based viability assays read luminescence as a measure of living cells.)

The subject of data set [2] is NCI-H358 cells (NSCLC, G12C). The data set is described as follows: NCI-H358 CTG proliferation assay (120 h), assay 2. It is filed as cell-based. To be noted: Homo sapiens, CellTiter-Glo, 384-well, 200 cells per well. The method, then:
NCI-1H358 cells (ATCC No. CRL-5807) are dispensed into white bottom opaque 96 well plates (Perkin Elmer cat no. 5680) at a density of 2000 cells per well in 100 μL RPM 1-1640 ATCC-Formulation (Gibco #A10491)+10% FCS (fetal calf serum) (assay 1) or into black 384-well plates, flat and clear bottom (Greiner, PNr. 781091) at a density of 200 cells per well in 60 μl RPMI-1640 ATCC-Formulation (Gibco #A10491)+10% FCS (fetal calf serum) (assay 2). […] Compounds (10 mM stock in DMSO) are added at logarithmic dose series using the HP Digital Dispenser D300 (Tecan) (assay 1) or the ECHO acoustic liquid handler system (Beckman Coulter) (assay 2), normalizing for added DMSO and including DMSO controls. For the TO time point measurement, untreated cells are analyzed at the time of compound addition. Plates are incubated for 120 h, and cell viability is measured using CellTiter-Glo luminescent cell viability reagent (Promega product code G7570). Viability (stated as percent of control) is defined as relative luminescence units RLU of each well divided by the RLU of cells in DMSO controls. IC50 values are determined from viability measurements by non-linear regression using a four-parameter model.

Another data set has as its target T1, KRAS (WT)::SOS1 (Homo sapiens, UniProt P01116, C118S).
T1 construct: KRAS (WT) 1-169, N-terminal 6His-tag for purification, cleaved off; 6His-tag (N, cleaved yes); TEV cleavage site
The data set is described as follows: KRAS::SOS1 AlphaScreen binding assay, KRAS WT. The method, then:
(§1) Low IC50 values in this assay setting are indicative of strong inhibition of protein-protein interaction between SOS1 and KRAS:
(§2) These assays measure the inhibitory effect of compounds on KRAS mutant protein-protein interactions using the Alpha Screen technology by Perkin Elmer.
(§3) For the chosen highest assay concentration of 100 μM, 150 nL of compound solution are transferred from a 10 mM DMSO compound stock solution. A series of eleven fivefold dilutions per compound are transferred to the assay plate, compound dilutions are tested in duplicates. DMSO are added as backfill to a total volume of 150 nL.
(§4) The assays run on a fully automated robotic system in a darkened room below 100 Lux. To 150 nl of compound dilution 10 μl of a mix including KRAS mutant protein, SOS1 (final assay concentrations see above) and GDP nucleotide (Sigma G7127; final assay concentration 10 μM) in assay buffer (1×PBS, 0.1% BSA, 0.05% Tween 20) are added into columns 1-24. After 30 minutes incubation time 5 μl of Alpha Screen bead mix in assay buffer are added into columns 1-23.
(§5) Plates are kept at room temperature in a darkened incubator. After an additional 60 minutes incubation time the signal is measured in a PerkinElmer Envision HTS Multilabel Reader using the AlphaScreen specs from PerkinElmer.
(§6) IC50 values are calculated and analyzed with Boehringer Ingelheim's MEGALAB IC50 application using a 4 parametric logistic model.
(Alpha assays give light when donor and acceptor beads are brought close together.)

A further data set addresses T2, KRAS (G12V)::SOS1 (Homo sapiens, UniProt P01116, C118S/G12V).
T2 construct: KRAS (G12V) 1-169, N-terminal 6His-tag, for purification, cleaved off; 6His-tag (N, cleaved yes); TEV cleavage site
As to the kind of experiment: KRAS::SOS1 AlphaScreen binding assay, KRAS G12V. The method, then: as §1, §2, §3, §4, §5, §6

T1 sequence (P01116 1-169 isoform P01116-2 C118S): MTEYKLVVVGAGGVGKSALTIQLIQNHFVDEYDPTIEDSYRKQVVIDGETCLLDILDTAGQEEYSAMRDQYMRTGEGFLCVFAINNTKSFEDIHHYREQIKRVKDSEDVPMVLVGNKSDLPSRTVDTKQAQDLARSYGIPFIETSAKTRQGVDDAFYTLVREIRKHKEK
T2 sequence (P01116 1-169 isoform P01116-2 G12V/C118S): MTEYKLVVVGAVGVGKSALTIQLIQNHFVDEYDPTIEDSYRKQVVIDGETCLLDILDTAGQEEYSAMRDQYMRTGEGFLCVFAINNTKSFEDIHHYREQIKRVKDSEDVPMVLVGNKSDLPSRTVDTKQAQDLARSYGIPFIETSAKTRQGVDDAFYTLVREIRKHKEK

For `C[C@H]1CNCCCN1c1nccc(-c2onc3c2CCC[C@@]32CCCc3sc(N)c(C#N)c32)n1` [If-1], the Papp A→B at 90 min, 10 μM in “Caco-2 assay” came to 9.4 ×10⁻⁶ cm/s. Also, the efflux ratio at 90 min, 10 μM in “Caco-2 assay” is 3.2. The IC50 (commonly the concentration that inhibits the measured activity by half) turned out to be 936 nM in data set [1], 2200 nM in data set [2], 43 nM on KRAS (WT)::SOS1 and 201 nM on KRAS (G12V)::SOS1.
Consider `C[C@H]1CNCCN1c1nccc(-c2noc3c2CCC[C@@]32CCCc3sc(N)c(C#N)c32)n1` [IIf-1], for which the Papp A→B at 90 min, 10 μM in “Caco-2 assay” was determined as 12 ×10⁻⁶ cm/s. Further, the values for the IC50 in data set [1] and in data set [2] were 228 nM and 3000 nM, respectively.
Turning to `C[C@H](Oc1ccnc(-c2noc3c2CCC[C@@]32CCCc3sc(N)c(C#N)c32)n1)[C@@H]1CCCN1C` [IIb-3], the Papp A→B at 90 min, 10 μM in “Caco-2 assay” stood at 17 ×10⁻⁶ cm/s. The efflux ratio at 90 min, 10 μM in “Caco-2 assay” came to 2. The IC50 worked out at 171 nM in data set [1], 743 nM in data set [2], 7 nM at KRAS (WT)::SOS1 and 2 nM on KRAS (G12V)::SOS1.
As to `C[C@H]1[C@@H]2CCCN2CCCN1c1nccc(-c2onc3c2CCC[C@@]32CCCc3sc(N)c(C#N)c32)n1` [Id-1], the half-inhibitory concentration (IC50) in data set [1] is 69 nM; at KRAS (WT)::SOS1 it was 9 nM; on KRAS (G12V)::SOS1, 8 nM.
In the case of `C[C@H]1CNCCCN1c1nccc(-c2noc3c2CCC[C@@]32CCCc3sc(N)c(C#N)c32)n1` (single isomer, unassigned) [IIb-5], in “Caco-2 assay”, the Papp A→B at 90 min, 10 μM is 13 ×10⁻⁶ cm/s and the efflux ratio at 90 min, 10 μM turned out to be 1.2. The compound also yielded an IC50 on KRAS (WT)::SOS1 of 12 nM.
Consider `C[C@H](Oc1nccc(-c2onc3c2CCC[C@@]32CCCc3sc(N)c(C#N)c32)n1)[C@@H]1C[C@@H]2C[C@@H]2N1C` [Ih-1], for which the IC50 in data set [2] came out at 3570 nM.
As to `C[C@H](Oc1nccc(-c2onc3c2CCC[C@@]32CCCc3sc(N)c(C#N)c32)n1)[C@@H]1C[C@@H](F)CN1C` [Ie-2], in “Caco-2 assay”, the Papp A→B at 90 min, 10 μM is 33 ×10⁻⁶ cm/s and the efflux ratio at 90 min, 10 μM amounted to 0.6. Further, in data set [1], the IC50 turned out to be 526 nM. Also, the IC50 on KRAS (G12V)::SOS1 is 23 nM.
As to `CCN1[C@H]2C[C@H]2C[C@H]1[C@H](C)Oc1nccc(-c2onc3c2CCC[C@@]32CCCc3sc(N)c(C#N)c32)n1` [Ie-3], 1710 nM corresponded to half-maximal inhibition in data set [2] (IC50).

The values above are taken from patent US20250129096A1, “ANNULATED 2-AMINO-3-CYANO THIOPHENES AND DERIVATIVES FOR THE TREATMENT OF CANCER” (Boehringer Ingelheim Int'l GmbH Corp., priority 2021, published 2025).
